Patent US20230015647A1, “INHIBITORS OF HISTONE DEMETHYLASES (PFI-63 AND PFI-90) FOR THE TREATMENT OF CANCER AND FOR THE INHIBITION OF HISTONE DEMETHYLASE IN CELLS” (The United States of America,as represented by the …, priority 2019, published 2023)
Entries after “also recorded” stand apart in the source; their conditions may differ. Where two headings read alike, the source gives them in different places.

How the values were obtained:
RH4 cells [1] = assay: Cell confluence assay (cytotoxicity) in RH4 cells; assay type: cell-based; conditions: Homo sapiens, 72 hour time point
Experimental: (§1) A cell confluence assay was performed to further assess the cytotoxicity of PFI-63 in RH4 and RH30 rhabdomyosarcoma cells. Confluence data was collected via photographic images of cells treated with PFI-63 at the following time points: 24 hours, 48 hours, 72 hours, 96 hours and 120 hours. Exemplary dose response curves at 72 hours are presented as FIGS. 10 and 11 in RH4 and RH30 cells, respectively.
as §1, with “to” for “to further”, “PFI-90” for “PFI-63”, “32” for “10”, “33” for “11”

RH30 cells = assay: Cell confluence assay (cytotoxicity) in RH30 cells; assay type: cell-based; conditions: 72 hour time point
Experimental: as §1
as §1, with “to” for “to further”, “PFI-90” for “PFI-63”, “32” for “10”, “33” for “11”

[2] = tested on: rhabdomyosarcoma cells (i.e. RH4 and RH30 cells); assay: Cell confluence / cell number, rhabdomyosarcoma cells taken together; assay type: cell-based
Experimental: (§2) Among the 64 compounds identified above, 33 compounds of unknown mechanism of action were identified.
as §1
as §1, with “to” for “to further”, “PFI-90” for “PFI-63”, “32” for “10”, “33” for “11”

KDM3B (JMJD1B) = molecular target: T1, KDM3B (JMJD1B) (Homo sapiens, UniProt Q7LBC6); assay: Eurofins histone lysine demethylase panel, enzymatic inhibition, substrate H3K9me1/2(3); assay type: biochemical; conditions: KDM3B (JMJD1B) enzymatic activity
T1 construct: The enzymatic activity of each of the full length protein was analyzed using known substrates; purchased Eurofins
T1 sequence (Q7LBC6 whole entry): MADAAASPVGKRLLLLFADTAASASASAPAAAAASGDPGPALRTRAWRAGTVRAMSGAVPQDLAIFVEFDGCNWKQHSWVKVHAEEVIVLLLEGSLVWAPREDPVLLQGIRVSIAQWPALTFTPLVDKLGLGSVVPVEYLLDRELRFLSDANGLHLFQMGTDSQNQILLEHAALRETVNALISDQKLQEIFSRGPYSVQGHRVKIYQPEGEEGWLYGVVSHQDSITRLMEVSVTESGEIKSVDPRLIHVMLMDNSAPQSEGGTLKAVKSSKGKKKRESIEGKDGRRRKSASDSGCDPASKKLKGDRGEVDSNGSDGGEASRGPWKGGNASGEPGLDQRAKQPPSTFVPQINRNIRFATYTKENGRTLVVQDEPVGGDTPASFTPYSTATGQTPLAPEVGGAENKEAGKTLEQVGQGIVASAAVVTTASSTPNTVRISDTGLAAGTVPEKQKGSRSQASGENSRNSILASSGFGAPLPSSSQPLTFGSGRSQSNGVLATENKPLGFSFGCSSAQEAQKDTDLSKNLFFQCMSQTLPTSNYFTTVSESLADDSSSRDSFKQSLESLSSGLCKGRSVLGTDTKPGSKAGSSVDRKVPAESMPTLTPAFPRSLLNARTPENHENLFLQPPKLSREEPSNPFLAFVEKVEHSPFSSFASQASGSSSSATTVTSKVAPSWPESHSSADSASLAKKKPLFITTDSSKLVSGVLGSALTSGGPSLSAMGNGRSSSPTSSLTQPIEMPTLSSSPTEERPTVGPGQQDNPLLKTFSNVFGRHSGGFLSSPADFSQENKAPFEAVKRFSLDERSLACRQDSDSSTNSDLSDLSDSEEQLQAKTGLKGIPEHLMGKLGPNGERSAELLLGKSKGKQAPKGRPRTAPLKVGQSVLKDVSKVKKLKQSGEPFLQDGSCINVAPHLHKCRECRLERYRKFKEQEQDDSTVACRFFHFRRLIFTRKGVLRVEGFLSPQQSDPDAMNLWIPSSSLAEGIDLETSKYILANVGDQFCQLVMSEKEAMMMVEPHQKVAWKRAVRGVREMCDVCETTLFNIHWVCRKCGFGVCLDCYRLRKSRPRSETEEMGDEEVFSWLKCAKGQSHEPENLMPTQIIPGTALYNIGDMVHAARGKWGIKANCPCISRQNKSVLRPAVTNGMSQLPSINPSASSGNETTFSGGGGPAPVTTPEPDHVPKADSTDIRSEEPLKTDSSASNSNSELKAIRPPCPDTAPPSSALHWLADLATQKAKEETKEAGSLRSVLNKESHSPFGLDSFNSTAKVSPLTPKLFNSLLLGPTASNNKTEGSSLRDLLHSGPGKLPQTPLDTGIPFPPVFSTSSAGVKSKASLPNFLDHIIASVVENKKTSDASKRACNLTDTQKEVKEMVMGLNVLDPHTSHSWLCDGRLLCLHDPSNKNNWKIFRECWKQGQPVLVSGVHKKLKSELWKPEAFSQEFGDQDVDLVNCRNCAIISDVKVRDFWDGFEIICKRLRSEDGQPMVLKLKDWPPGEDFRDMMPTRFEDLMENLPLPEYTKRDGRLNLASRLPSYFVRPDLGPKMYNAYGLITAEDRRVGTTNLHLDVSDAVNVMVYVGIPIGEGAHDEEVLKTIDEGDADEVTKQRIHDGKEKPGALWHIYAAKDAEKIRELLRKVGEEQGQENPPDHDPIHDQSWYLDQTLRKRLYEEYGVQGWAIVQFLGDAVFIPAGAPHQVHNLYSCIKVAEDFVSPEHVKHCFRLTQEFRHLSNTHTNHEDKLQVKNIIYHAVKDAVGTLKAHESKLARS
Experimental: PFI-63 was sent to Eurofins (www.eurofins.com) for direct enzymatic inhibition activity analysis. The enzymatic activity of each of the full length protein was analyzed using known substrates such as methylated lysines. The proteins were treated with various concentrations of PFI-63. As described above, PFI-90 inhibitory activity was determined by Eurofins using enzymatic inhibition activity analysis of a panel of histone demethylases.

RH4 cells [3] = assay: Gene set enrichment analysis (GSEA) of RNASeq gene expression; assay type: cell-based, human
Experimental: Gene set enrichment analyses (GSEA) were performed according to methods known in the art to evaluate […] in cells treated with PFI-63 as compared to control cells. Briefly, gene expression in RH4 cells treated with PFI-63 was assessed by RNASeq, and the results were statistically compared with various pre-existing gene sets. […] The results also indicate that RH4 cells treated with PFI-63 experience upregulation of targets associated with myogenic differentiation and apoptosis (see FIGS. 18 and 19).
GSEA assays like those performed in Example 3 above, were also performed to assess PFI-90. The results for PFI-90 were similar to those obtained for PFI-63. […] The results also indicate that cells treated with PFI-90 experience upregulation of targets associated with myogenic differentiation and apoptosis (see FIGS. 39-40).

RH4 cells [4] = assay: Annexin V staining; assay type: cell-based, human; conditions: relative to DMSO control
Description: The impact of PFI-63 and PFI-90 on apoptosis in rhabdomyosarcoma cells was investigated by assaying caspase 3 levels in the cells, and by annexin V staining.

RH30.19luc cells = assay: CRISPR/Cas9 genome-scale loss of function time course screen (GeCKOv2, TKOv3); assay type: cell-based; conditions: compared to DMSO
Experimental: To identify specific proteins targeted by PFI-63, a genome-scale loss of function time course screen was performed in RH30.19luc cells using two CRISPR/Cas9 libraries (GeCKOv2 and TKOv3) with and without treatment with PFI-63.

rhabdomyosarcoma cells = assay: Morphological imaging of treated cells; assay type: cell-based
Description: as §2

[5] = tested on: NCI-60 cancer cell line panel; assay: NCI-60 cancer cell line panel, percentage growth; assay type: cell-based, human
Experimental: This example describes the testing of PFI-90 against the NCI-60 panel. The NCI-60 cancer cell line panel is a collection of 60 human cancer cell lines maintained by the National Cancer Institute (see Shoemaker et al., Nat. Rev. Cancer, 6: 813-823 (2006)). Briefly, the percentage growth of the cancer cells lines was measured in the presence of PFI-90 at various concentrations.

[6] = tested on: truncated KDM3B catalytic domain; assay: WaterLOGSY NMR binding assay; conditions: 300 μM; in the presence and in the absence of 2-OG
Description: (§3) A WaterLOGSY assay and a Carr-Purcell Meiboom-Gill (CPMG) based assay were used to investigate protein-ligand binding affinity between PFI-90 and a truncated KDM3B catalytic domain.
In traditional proton NMR experiments, a series of peaks are generated that represent the structure of a solitary small molecule, whereas the WaterLOGSY experiment examines the behavior of a small molecule's peaks in the presence of a potential target. This is achieved by observing differences in interaction between a small molecule interacting with water co-occupying a binding cleft on a target as compared to water dispersed freely in solution. The experiment then depicts the ratio of bound to unbound small molecule by phasing proton NMR spectra on the X-axis in opposing directions depending on the magnitude of that ratio (i.e., increasing ratios above 1 will phase positively, decreasing ratios below 1 will phase negatively).

[7] = tested on: truncated KDM3B catalytic domain; assay: CPMG relaxation editing NMR binding assay
Description: as §3
CPMG (Carr-Purcell-Meiboom-Gill) Relaxation Editing Proton NMR is another drug-discovery NMR experiment that may be used in conjunction with WaterLOGSY to orthogonally validate the presence of a reversible binding interaction of mild to high affinity from a small molecule to a label-free target. In contrast to WaterLOGSY, all peaks are phased above the X-axis. Instead, this experiment filters out the proportion of peak height that is contributed from the quantity of small molecule bound to a target of high molecular weight (e.g., a protein). Once the attenuation of peak height is equivalent to a 20% reduction, the compound is said to bind, with an increasing ratio of bound to unbound small molecules manifesting in increasing signal attenuation.

[8] = tested on: truncated KDM3B catalytic domain; assay: 1D 1H NMR chemical shift perturbation; assay type: binding; conditions: 300 uM PFI-90, 12 uM protein, with or without 100 uM 2-OG
Description: For reference, FIG. 63 depicts NMR peaks for PFI-90. While the peaks are complex, all relevant peaks are clearly resolved. FIG. 64 depicts NMR peaks obtained for […] (also called 2-oxoglutaric acid or “2-OG”), a substrate of histone demethylases. 2-OG peaks are easily resolved. FIG. 65 depicts results from a 1D 1H analysis of PFI-90.

SMILES: Cc1cc(C)cc(C(=O)NNC(=O)c2ccccn2)c1 [PFI-63]
- IC50 (RH4 cells [1]): 3.66 µM
- IC50 (RH30 cells): 4.82 µM
- IC50 ([2]; FIGS. 8-9 (cell number by confluency, RH4, RH30, RH30.19luc), read-out: IC50): 2 to 6 µM
- IC50 ([2]; RH4 and RH30 cells, approximate, read-out: IC50 (toxic to rhabdomyosarcoma cells)): 3 to 5 µM
- IC50 (KDM3B (JMJD1B)): 2 to 3 µM
- GSEA: genes that are induced upon KDM3B suppression (RH4 cells [3]): upregulated
- GSEA: targets associated with apoptosis (RH4 cells [3]): upregulation
- GSEA: targets associated with myogenic differentiation (RH4 cells [3]): upregulation
- GSEA: targets of the PAX3-FOXO1 fusion transcription factor (RH4 cells [3]): downregulated
- GSEA: targets that are upregulated by GSK-J4 (RH4 cells [3]): upregulated; also recorded: upregulation
- GSEA: targets that are upregulated by JIB-04 (RH4 cells [3]): upregulated; also recorded: upregulation
- cell death by annexin V staining (RH4 cells [4]): increase in cell death
- synthetic lethality of targets of histone lysine demethylases (RH30.19luc cells): synthetically lethal
- cell morphology (rhabdomyosarcoma cells): elongation of cells

SMILES: O=C(NNc1ccccn1)c1ccccn1 [PFI-90]
- IC50 (RH4 cells [1]): 0.812 µM
- IC50 (RH30 cells): 3.2 µM
- cytotoxicity compared with PFI-63 ([2]; rhabdomyosarcoma cells (RH4, RH30)): more cytotoxic to rhabdomyosarcoma cells than PFI-63
- GSEA: genes that are induced upon KDM3B suppression (RH4 cells [3]): upregulated
- GSEA: targets associated with apoptosis (RH4 cells [3]): upregulation
- GSEA: targets associated with myogenic differentiation (RH4 cells [3]): upregulation
- GSEA: targets of the PAX3-FOXO1 fusion transcription factor (RH4 cells [3]): downregulated
- cell death by annexin V staining (RH4 cells [4]): increase in cell death
- cell growth ([5]; CNS cancer cell lines): inhibits cell growth
- cell growth ([5]; breast cancer cell lines): inhibits cell growth
- cell growth ([5]; colon cancer cell lines): inhibits cell growth
- cell growth ([5]; leukemia cell lines): slows and/or stops the growth of the cells; also recorded: inhibits cell growth
- cell growth ([5]; melanoma cell lines): inhibits cell growth
- cell growth ([5]; non-small cell lung cancer cell lines): inhibits cell growth
- cell growth ([5]; ovarian cancer cell lines): inhibits cell growth
- cell growth ([5]; prostate cancer cell lines): inhibits cell growth
- cell growth ([5]; renal cancer cell lines): inhibits growth and leads to cell death; also recorded: inhibits cell growth and induces cell death
- binding (WaterLOGSY) [6]: found to bind; also recorded: binds
- peak height attenuation (CPMG) ([7]; 1 of 9 peaks): 70%
- peak height attenuation (CPMG) ([7]; 3 of 9 peaks): 50%
- peak height attenuation (CPMG) ([7]; 5 out of 9 PFI-90 peaks): Complete/near complete
- binding (CPMG) ([7]; in the presence and absence of 2-OG): Strong binding
- chemical shift perturbation upon addition of truncated KDM3B catalytic domain [8]: not influences by 2-OG presence; also recorded: not influenced by the presence of 2-OG
